“Also recorded” adds a separate entry of the source. Read-outs that look alike come from different tables or passages of the source.
Columns and labels:
[1] = system: cortical astrocytes; settings: 1 mM glutamate or 10 mM methyl-succinate; cited from earlier work
[2] = system: cortical neurons; settings: cited from earlier work
[3] = system: RGC apoptosis; assay: DARC in vivo imaging of OHT rat eyes, topical CoQ10; settings: topical on Day 0, 1, 7, 21 & 42; at 3 & 6 weeks after elevated IOP; vs control
Description: FIG. 14B DARC in vivo imaging of OHT rat eyes at 3 weeks after elevated intraocular pressure (IOP) showing increased RGC apoptosis (white spots) in Control (A) compared to CoQ10-treated (B) eyes.

[4] = system: Cyclophilin D; assay: Histological cross sections of retina stained for Cyclophilin D, OHT rat eyes; type: in vivo
[5] = in vivo; cited from earlier work
[6] = system: retina autofluorescence (NADH, FAD); settings: intravitreal administration
Description: Detection of FCCP-induced retinal metabolic changes in vivo in a mouse eye.

[7] = system: RGC; settings: topical application; cited from earlier work
[8] = human, in vivo; cited from earlier work
[9] = system: RGC; settings: previously established; cited from earlier work
[10] = system: RGC; assay: Staurosporine (SSP)-induced RGC apoptosis model, time-lapse in vivo imaging; design: species or system rat
Method: For analysis of staurosporine-induced RGC apoptosis, 14 DA rats received 0.5 μg of intravitreal staurosporine (SSP) in 5 μl phosphate-buffered saline (PBS); both Sigma Aldrich UK, to induce RGC apoptosis as previously described (Cordeiro et al., 2004). Animals were imaged immediately for up to 6 hours, after which they were killed for histology.
Using a method the inventors have recently described, rats were given 2.5 μg of intravitreal Alexa Fluor 488 labelled annexin V in 5 μl PBS for identification of RGC apoptosis, 2 hours before in vivo imaging (Cordeiro et al., 2004). For mice, the inventors used 1 μl of a 0.25 mg/ml solution of IR-labelled annexin (Annexin-IR) in intravitreal injections as previously described (Schmitz-Valckenberg et al., 2008). […]
All rats had in vivo retinal imaging performed at regular and set intervals after experimental treatment, using a prototype Zeiss confocal scanning laser ophthalmoscope (cSLO), as previously described (Cordeiro et al., 2004; Maass et al., 2007). […] Colour and raw scatter plots of annexin and PI fluorescence intensity were constructed, so data could be analysed in a similar manner to data derived by in vitro FACS analysis. […] Fluorescence intensity counts derived from raw scatter plots were used to quantify each phase of cell death. […]

[11] = system: RGC; settings: rat, in vivo; cited from earlier work
[12] = in comparison to 360° laser trabeculoplasty; cited from earlier work
[13] = system: mitochondrial membrane potential in the retina; assay: Mitochondrial membrane potential (MMP) in mouse eye in vivo, Rho123 fluorescence
Method: FIG. 11B. Early investigations show the effects of intravitreal rotenone on mitochondrial membrane potential (MMP) in a mouse eye in vivo.
FIG. 11C. Using the same analysis, we looked at the effects of Aβ25-35 on MMP in vivo in a mouse eye. Rho123 is a fluorescent probe, used to detect the changes in mitochondrial fluorescent density. […] The dashed line in C represents baseline fluorescence before Rho123 was injected

[14] = system: ROS production in the retina; assay: ROS production in mouse retina in vivo visualized with DHE; settings: intravitreal; vs vehicle/control eye
Method: FIG. 12B. The effects of rotenone on ROS production in mouse retina in vivo. ROS production visualized with DHE (dihydroethidium). DHE is a non-fluorescent agent, reacting with ROS intracellularly to produce a fluorescent oxidative product which can be detected. Rotenone (50 uM, 1 ul) was intravitreally injected into the one eye (C57) and the same volume of vehicle (saline) injected into the contralateral eye. DHE (1 ul) was then injected intravitreally and both eyes imaged to detect ROS production using a SLO machine.
FIG. 12C. The effects of PMA in producing ROS in mouse retina in vivo. PMA (50 ug/ml, 1 ul) was injected intravitreally into the one eye and saline (1 ul) into the contralateral eye. DHE (1 ul) was simultaneously injected for detecting ROS production.
FIG. 12D. The effects of Aβ25-35 on ROS production in vivo. DHE was intravitreally injected into the both eyes of a mouse to detect ROS production.

[15] = system: control cells; settings: cited from earlier work
[16] = system: calcium signals in the retina; assay: Calcium signals in vivo in a mouse eye, Fura red; settings: ten minutes after 5 nmol; vs pre-treatment, p<0.001
Description: FIG. 13B. The effects of Aβ25-35 on calcium signals in vivo in a mouse eye. […] Ten minutes after Aβ25-35 (5 nmol) application (as shown D) however, a stronger fluorescent signal was detected in the RGCL (C).

[17] = system: RGC; assay: Abeta (Aβ25-35)-induced RGC death model, in vivo cSLO imaging with annexin V and PI; design: species or system mouse
Method: For the analysis of Abeta, freshly made Aβ25-35 (Sigma-Aldrich, 3.40 nmol) (Dahlgren et al., 2002) was intravitreally injected into C57 mice (n=10) (Maass et al., 2007). Animals were imaged at 72 hours. For AD 3× Tg-AD studies, 4 eyes (all female, 14 months) with 2 eyes from aged control mice (PS1KI; female, 18 months) were assessed. 3× Tg-AD and control PS1KI mice were obtained from a colony (maintained at CeSI) established after a generous gift of Frank Laferla. Intravitreal phorbol myristate acetate (1 μl of 10 μg/ml) was administered to left eyes of 3× Tg-AD animals, at the same time as annexin V and PI.
Using a method the inventors have recently described, rats were given 2.5 μg of intravitreal Alexa Fluor 488 labelled annexin V in 5 μl PBS for identification of RGC apoptosis, 2 hours before in vivo imaging (Cordeiro et al., 2004). For mice, the inventors used 1 μl of a 0.25 mg/ml solution of IR-labelled annexin (Annexin-IR) in intravitreal injections as previously described (Schmitz-Valckenberg et al., 2008).
In order to identify necrotic RGCs in rats (2 μl) and mice (1 μl), propidium iodide (PI; 0.4 mg/ml, 1% solution, Sigma-Aldrich, Dorset UK) was administered intravitreally at the same time as annexin, 2 hours before in vivo imaging. PI intercalates into nucleic acids, binding to double-stranded DNA, but only crosses the plasma membrane of non-viable cells. Cells that have lost membrane integrity are thus identified by fluorescent red PI staining throughout the nuclei.
In mice, the inventors used instrumentation as previously described (Maass et al., 2007; Schmitz-Valckenberg et al., 2008), with a modified cSLO (Heidelberg Retina Angiograph 2, Heidelberg Engineering, Dossenheim, Germany) and a wide-field lens (55°). The fluorescein angiogram (488 nm argon laser) and indocyanine green (IR 790 nm diode laser) settings were used to detect PI and IR-labelled annexin respectively. The same software was used to analyse video sequenced images as described before with whole retinal monochrome images from each eye recorded and colourised. Dual-color images were produced by combining each of the grayscale images from the cSLO into the red (PI), and green (IR annexin) of an RGB color image.
The left eye of each animal was treated with intravitreal 0.40 nmol MK801 at the same time as Abeta. Wide-angle retinal images were recorded 2 hours following intravitreal annexin (green) and PI (red), as previously described (Guo at al., 2006).
To assess the relative levels of early apoptosis, late apoptosis and necrosis the inventors studied the co-localization of PI and annexin V using ImageJ software with the Intensity Correlation Analysis plugin (Li et al., 2004). Colour and raw scatter plots of annexin and PI fluorescence intensity were constructed from plugin-generated data for each animal. Corresponding scatter plots (blue) from the eyes shown in FIG. 8a-b are illustrated in FIG. 8c-d. The data were analysed in a similar manner to data derived by in vitro FACS analysis, with four quadrants (midlines shaded in colour overlay as red, green, blue and yellow) enabling separation of the different phases of cell death as annexin V positive (early apoptosis, green), annexin V and PI double positive (late apoptosis, yellow) and PI positive (necrosis, red). Thresholds were set automatically by the plugin for each analysis of each eye. The inventors then used fluorescence intensity counts from the raw scatter plots to quantify each phase of cell death.
To further assess the analytical power of the technique, the inventors next investigated whether the level of oxidative stress in Abeta-treated eyes influenced the phase of cell death and whether this was possible to visualize in vivo. […] FIG. 8f-g are taken from the right untreated (F) and left PMA-treated (G) eye of an animal treated 72 hours previously with 3.40 nmol Aβ25-35. […]

[18] = system: RGC; settings: previously established; cited from earlier work; remark: listed apart in the source
[19] = system: calcium signal in the retina; assay: Calcium transients in calcium transgenic mouse eye (FCIPs) in vivo; settings: intravitreal; vs baseline
Description: FIG. 13C Calcium transgenic mice with genetically-encoded fluorescent Ca2+ indicator proteins (FCIPs) were imaged in vivo. Aβ25-35-induced calcium transients in a calcium transgenic mouse eye. […] Analysis of the fluorescent signal after Aβ injection at t=o, is shown graphically with fluorescence seen in the areas Identified by coloured boxes in inset (D,E).

## N[C@@H](CCC(=O)O)C(=O)O [glutamate]
[1]
  slow progressive mitochondrial depolarization in response to Aβ 25-35: abolished almost completely

## C[C@]12CC[C@@H]3c4ccc(O)cc4CC[C@H]3[C@@H]1CC[C@@H]2O [17β-estradiol]
[2]
  neuronal integrity and function: increased

## COC1=C(OC)C(=O)C(C/C=C(\C)CC/C=C(\C)CC/C=C(\C)CC/C=C(\C)CC/C=C(\C)CC/C=C(\C)CC/C=C(\C)CC/C=C(\C)CC/C=C(\C)CCC=C(C)C)=C(C)C1=O [CoQ10, Ubiquinone]
[3]
  RGC apoptosis: significantly reduced
[4]; 3 weeks after induction of OHT
  Cyclophilin D (CyD) in retina, histological grading: increased; also recorded: significant increase
[4]; 12 weeks after elevated IOP
  Cyclophilin D (CyD) in retina, histological grading: not at 12 weeks
[5]
  neuroprotection: highly effective

## N#CC(C#N)=NNc1ccc(OC(F)(F)F)cc1 [FCCP, Carbonylcyanide-p-trifluoromethoxy-phenylhydrazone]
[6]
  real time autofluorescence in the retina: increase

## NGF: nerve growth factor
[7]
  RGC apoptosis: reducing
[8]
  functional effect in patients: neuroprotective effects functionally

## CN[C@@H]1C[C@H]2O[C@@](C)([C@@H]1OC)n1c3ccccc3c3c4c(c5c6ccccc6n2c5c31)C(=O)NC4 [SSP, staurosporine]
[9]
  time point of maximal apoptosis: 2 h
[10]; 2 h, co-localization scatter plot analysis
  cell death profile (phases) at time of peak apoptosis: significantly more cells in the late phase of apoptosis; also recorded: significantly more RGCs in the phases of late apoptosis
[10]; SSP-treated rat eye, time-lapse video over 5 hours
  PI staining over time: clear increase

## Brc1c(NC2=NCCN2)ccc2nccnc12 [Brimonidine]
[11]
  RGC survival: positive effect
[12]
  visual field deterioration: reduced

## C=C(C)[C@H]1Cc2c(ccc3c2O[C@@H]2COc4cc(OC)c(OC)cc4[C@@H]2C3=O)O1 [Rotenone]
[13]; intravitreal 20 uM, 1 ul, vs vehicle control
  mitochondrial membrane depolarization (Rho123 signal): significant mitochondrial membrane depolarization
[14]
  ROS production in the retina (DHE fluorescence): stronger fluorescent signals of ROS production
[15]
  ROS production (MitoSox): significant increase

## Aβ25-35: amyloid beta peptide fragment 25-35 (Sigma-Aldrich), induces RGC apoptosis (GSNKGAIIGLM; Amyloid-beta protein 42; UniProt P05067 696-706, looked up, fragment)
[13]; vs baseline, few minutes delay, p<0.01
  MMP in the retina (Rho123): significant loss
[14]
  ROS production in the retina (DHE fluorescence): significant increase of ROS production
[16]
  calcium signals in the retina (Fura red): significant increase
[17]; 72 h, co-localization scatter plot analysis, listed as Abeta
  cell death profile (phases) at time of peak apoptosis: significantly more cells in the late phase of apoptosis; also recorded: significantly more RGCs in the phases of late apoptosis
[17]; 72 hours after intravitreal administration of 3.40 nmol
  RGC death: Significant RGC death
[18]
  time point of maximal apoptosis: 72 h
[19]
  fluorescent calcium signal in the retina: immediate fluorescent calcium signal
